In patent US20020025918A1, “Methods of using helical peptides in plants” (priority 1987, published 2002):
≈ marks a conversion by molar mass, not a printed value. Residues, ends and D or L forms follow the SMILES beside them.

Tests used:
Format in all cases: cell-based
Staph auerus-MR-1 = test: MIC/MBC, fresh isolates; settings: fresh isolate Staph auerus-MR-1
Text: (§1) The procedure of example 2 was followed using a variety of freshly isolated bacterial samples.

Pseudomonas aeruginosa-1 = test: MIC/MBC, fresh isolates; settings: fresh isolate Pseudomonas aeruginosa-1
Text: as §1

Enterobacteria Cloacae = test: MIC/MBC, fresh isolates; settings: fresh isolate Enterobacteria Cloacae
Text: as §1

Klebsiella pheumoniae = test: MIC/MBC, fresh isolates; settings: fresh isolate Klebsiella pheumoniae
Text: as §1

Eschera Coli = test: MIC/MBC, fresh isolates; settings: fresh isolate Eschera Coli
Text: as §1

Serratia Marcescens = test: MIC/MBC, fresh isolates; settings: fresh isolate Serratia Marcescens
Text: as §1

Staph Coag neg = test: MIC/MBC, fresh isolates; settings: fresh isolate Staph Coag neg
Text: as §1

Acinetobacter Cal Anit = test: MIC/MBC, fresh isolates; settings: fresh isolate Acinetobacter Cal Anit
Text: as §1

Enterococcus-1 = test: MIC/MBC, fresh isolates; settings: fresh isolate Enterococcus-1
Text: as §1

Staph aureus = test: MIC/MBC, fresh isolates; settings: fresh isolate Staph aureus
Text: as §1

Pseudomonas aeruginosa-2 = test: MIC/MBC, fresh isolates; settings: fresh isolate Pseudomonas aeruginosa-2
Text: as §1

Pseudomonas aeruginosa-3 = test: MIC/MBC, fresh isolates; settings: fresh isolate Pseudomonas aeruginosa-3
Text: as §1

Staph aureus-MR-2 = test: MIC/MBC, fresh isolates; settings: fresh isolate Staph aureus-MR-2
Text: as §1

Enterococcus-2 = test: MIC/MBC, fresh isolates; settings: fresh isolate Enterococcus-2
Text: as §1

Citrobacter Freundii = test: MIC/MBC, fresh isolates; settings: fresh isolate Citrobacter Freundii
Text: as §1

Citrobacter Diversus = test: MIC/MBC, fresh isolates; settings: fresh isolate Citrobacter Diversus
Text: as §1

Enterococcus-3 = test: MIC/MBC, fresh isolates; settings: fresh isolate Enterococcus-3
Text: as §1

Klebsiella pheumoniae-2 = test: MIC/MBC, fresh isolates; settings: fresh isolate Klebsiella pheumoniae-2
Text: as §1

Morganella morganil = test: MIC/MBC, fresh isolates; settings: fresh isolate Morganella morganil
Text: as §1

[1] = system: Human mononuclear leukocytes; test: 3H-thymidine uptake in WBC (proliferation)
Description: Human mononuclear leukocytes were isolated from whole blood in the following manner. Blood was collected in vacutainer tubes containing EDTA, and was then diluted with an equal valume of calcium and magnesium-free PBS and layered over Histopaque resin (GIBCO). The tubes were centrifuged for 30 minutes at 25° C. and 450× g. The plasma and platelets above the banded layer of cells in the resulting gradient were removed and discarded. The banded white blood cells were removed to fresh test tubes, washed 3 times with PBS, and resuspended in RPMI medium containing 10% fetal bovine serum (FBS), mercaptoethanol, and penicillin and streptomycin as antibiotics. The cells were then counted and resuspended to a final concentration of 3×10^6 cells/ml.
To each well of a 96 well flat-bottomed microtiter plate was aded 100 μl of cells (3×10^5 cells). Treatment groups were set in quadruplicate samples. The appropriate concentration of test peptide and/or the mitogen hytohemaglutinate (PHA), was added in a total volume of 100 μl of medium to the test wells. The plates were then incubated at 37° C. and 5% CO2 for a duration of 72 hours. At the end of the incubation period, 1 μCi of 3H-thymidine in 1 μl TRIS-HCI, PH8 was added to each well, and the plates incubated an additional 18 hours.
Cellular DNA was harvested onto glass fiber filters using a semi-automatic cell harvester. The glass filters were then placed into vials containing scintillation fluid, and the samples were counted in a scintillation counter. The uptake of 3H-thymidine is an indiator of cell proliferation, thus the higher the number of counts in the sample, the greater the proliferative activity of the cells. The results in Table XI indicate that low dose of the synthetic peptides of this invention stimulate cell growth.

Compound: CC(C)C[C@H](NC(=O)[C@H](CCCCN)NC(=O)[C@H](CCCCN)NC(=O)[C@H](C)NC(=O)[C@H](CC(C)C)NC(=O)[C@H](CCCCN)NC(=O)[C@H](C)NC(=O)[C@H](CC(C)C)NC(=O)[C@H](CCCCN)NC(=O)[C@H](CCCCN)NC(=O)[C@H](C)NC(=O)[C@H](CC(C)C)NC(=O)[C@H](CCCCN)NC(=O)[C@H](CCCCN)NC(=O)[C@H](CC(C)C)NC(=O)[C@H](CCCCN)NC(=O)[C@H](CCCCN)NC(=O)[C@H](C)NC(=O)[C@H](CC(C)C)NC(=O)[C@H](CCCCN)NC(=O)[C@H](CCCCN)NC(=O)[C@H](C)NC(=O)[C@@H](N)Cc1ccccc1)C(N)=O [Anubis-2] (H-FAKKLAKKLKKLAKKLAKLAKKL-NH2)
- MIC (Staph auerus-MR-1): 51.2 µM (≈ 134 µg/mL)
- MBC (Pseudomonas aeruginosa-1): 25.6 µM (≈ 66.8 µg/mL)
- MIC (Pseudomonas aeruginosa-1): 6.4 µM (≈ 16.7 µg/mL)
- MBC (Enterobacteria Cloacae): 12.8 µM (≈ 33.4 µg/mL)
- MIC (Enterobacteria Cloacae): 6.4 µM (≈ 16.7 µg/mL)
- MBC (Klebsiella pheumoniae): 6.4 µM (≈ 16.7 µg/mL)
- MIC (Klebsiella pheumoniae): 3.2 µM (≈ 8.35 µg/mL)
- MBC (Eschera Coli): 12.8 µM (≈ 33.4 µg/mL)
- MIC (Eschera Coli): 6.4 µM (≈ 16.7 µg/mL)
- MIC (Serratia Marcescens): 51.2 µM (≈ 134 µg/mL)
- MBC (Staph Coag neg): 3.2 µM (≈ 8.35 µg/mL)
- MIC (Staph Coag neg): 1.6 µM (≈ 4.17 µg/mL)
- MBC (Acinetobacter Cal Anit): 3.2 µM (≈ 8.35 µg/mL)
- MIC (Acinetobacter Cal Anit): 3.2 µM (≈ 8.35 µg/mL)
- MBC (Enterococcus-1): 3.2 µM (≈ 8.35 µg/mL)
- MIC (Enterococcus-1): 1.6 µM (≈ 4.17 µg/mL)
- MBC (Staph aureus): 51.2 µM (≈ 134 µg/mL)
- MIC (Staph aureus): 6.4 µM (≈ 16.7 µg/mL)
- MBC (Pseudomonas aeruginosa-2): 6.4 µM (≈ 16.7 µg/mL)
- MIC (Pseudomonas aeruginosa-2): 3.2 µM (≈ 8.35 µg/mL)
- MBC (Pseudomonas aeruginosa-3): 51.2 µM (≈ 134 µg/mL)
- MIC (Pseudomonas aeruginosa-3): 6.4 µM (≈ 16.7 µg/mL)
- MBC (Staph aureus-MR-2): 25.6 µM (≈ 66.8 µg/mL)
- MIC (Staph aureus-MR-2): 12.8 µM (≈ 33.4 µg/mL)
- MIC (Enterococcus-2): 51.2 µM (≈ 134 µg/mL)
- MBC (Citrobacter Freundii): 6.4 µM (≈ 16.7 µg/mL)
- MIC (Citrobacter Freundii): 3.2 µM (≈ 8.35 µg/mL)
- MBC (Citrobacter Diversus): 6.4 µM (≈ 16.7 µg/mL)
- MIC (Citrobacter Diversus): 3.2 µM (≈ 8.35 µg/mL)
- MIC (Enterococcus-3): 51.2 µM (≈ 134 µg/mL)
- MBC (Klebsiella pheumoniae-2): 25.6 µM (≈ 66.8 µg/mL)
- MIC (Klebsiella pheumoniae-2): 6.4 µM (≈ 16.7 µg/mL)
- MIC (Morganella morganil): 51.2 µM (≈ 134 µg/mL)
- 3H-Thymidine Uptake in WBC, % of Control ([1]; peptide 10 μM, PHA 0 mg): 149%
- 3H-Thymidine Uptake in WBC, % of Control ([1]; peptide 10 μM, PHA 0.5 mg): 290%
- 3H-Thymidine Uptake in WBC, % of Control ([1]; peptide 10 μM, PHA 5.0 mg): 120%
- 3H-Thymidine Uptake in WBC, % of Control ([1]; peptide 25 μM, PHA 0 mg): 46%
- 3H-Thymidine Uptake in WBC, % of Control ([1]; peptide 25 μM, PHA 0.5 mg): 393%
- 3H-Thymidine Uptake in WBC, % of Control ([1]; peptide 25 μM, PHA 5.0 mg): 108%
- 3H-Thymidine Uptake in WBC, % of Control ([1]; peptide 50 μM, PHA 0 mg): 19%
- 3H-Thymidine Uptake in WBC, % of Control ([1]; peptide 50 μM, PHA 0.5 mg): 4%
- 3H-Thymidine Uptake in WBC, % of Control ([1]; peptide 50 μM, PHA 5.0 mg): 1%
- 3H-Thymidine Uptake in WBC, % of Control ([1]; peptide 100 μM, PHA 0 mg): 26%
- 3H-Thymidine Uptake in WBC, % of Control ([1]; peptide 100 μM, PHA 0.5 mg): 5%
- 3H-Thymidine Uptake in WBC, % of Control ([1]; peptide 100 μM, PHA 5.0 mg): 0%
